# Measured values reported in PMC6413118, “Active Components, Antioxidant, Inhibition on Metabolic Syndrome Related Enzymes, and Monthly Variations in Mature Leaf Hawk Tea” (Molecules, 2019).
# Target: T1, porcine pancreatic lipase (Sus scrofa, UniProt P00591)
# T1 construct: gene PNLIP; EC printed is that of carboxylesterase
# T1 sequence (P00591 1-450): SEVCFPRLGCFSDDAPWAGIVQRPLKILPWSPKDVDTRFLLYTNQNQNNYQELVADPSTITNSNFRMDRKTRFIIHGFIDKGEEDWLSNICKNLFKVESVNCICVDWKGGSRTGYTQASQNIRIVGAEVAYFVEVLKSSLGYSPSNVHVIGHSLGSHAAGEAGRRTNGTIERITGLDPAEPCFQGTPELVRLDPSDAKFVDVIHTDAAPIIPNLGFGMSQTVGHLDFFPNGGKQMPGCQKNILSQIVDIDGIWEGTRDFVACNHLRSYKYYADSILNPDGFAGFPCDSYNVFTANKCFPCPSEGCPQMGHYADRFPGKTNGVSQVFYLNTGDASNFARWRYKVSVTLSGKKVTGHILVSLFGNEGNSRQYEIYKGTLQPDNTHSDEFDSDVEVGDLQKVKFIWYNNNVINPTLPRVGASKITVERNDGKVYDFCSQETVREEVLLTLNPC
# Test: p-nitrophenyl palmitate hydrolysis, absorbance […] nm, microplate
# Format: biochemical
# Details: 10 mM p-nitrophenyl palmitate stock (20 μL), 0.1 M sodium phosphate pH 7, 37 °C, 20 min; unreliable: table and text disagree tenfold
compound,measurement,value
CCCCCCCCCCC[C@@H](C[C@@H]1OC(=O)[C@H]1CCCCCC)OC(=O)[C@H](CC(C)C)NC=O [Orlistat],Lipase IC50,600 ng/mL
